Reference: patent US7648966B2, “Mannose-6-phosphonate compounds for the treatment of inflammatory diseases” (Pharmaxis Pty Limited, priority 2003, dated 2010)

System: 51Cr-labeled T lymphocyte migration into the spleen
Experiment: Inhibition of lymphocyte migration into lymphoid tissue (spleen) in vivo
Design: species or system Balb/c mice
Conditions: 5 mg per mouse iv with labeled cells; spleens removed 1.5 hours after injection; vs negative controls
Experimental: Lymphocytes were obtained from spleens of 6-8 week old female specific pathogen-free Balb/c mice (19-21 g). Single cell suspensions prepared by conventional means (pushing through a stainless steel screen). Red blood cells were lysed by treating with a solution of bicarbonate buffered ammonium chloride-EDTA (pH 7.3) and the preparation strained through a Falcon 2350 cell strainer. All cell preparative steps were performed on ice. Cell were suspended in a conventional lymphocyte culture medium (DMEM plus glucose, folic acid, L-asparagine, sodium bicarbonate, L-glutamine, sodium pyruvate, HEPES, 2-mercaptoethanol, penicillin, streptomycin, neomycin, and 2% FCS).
B lymphocytes were depleted by suspending the cells in purified rat anti-mouse CD45/B220 antibody (RA3-6B2 clone; PharMingen, USA) at a concentration of 4×10^7 cells/ml and incubated on ice for 20 minutes. An equal volume of culture medium (as above) was added and the cells centrifuged (200×g) and resuspended at a concentration of 10^7 cells/ml in BioMag goat ant-rat IgG (H&L) (“GARIG”) conjugated to magnetic beads (Bio Mag; Perseptive Diagnostics, Polysciences, Inc., USA). Following a 20 minute incubation on ice, with agitation every 5 minutes, cells binding to the GARIG/anti-CD45/B220 antibody complex were removed using magnetic separation (Dynal MPC-6, Dynal, USA). This procedure was repeated 4 times, resulting in a cell population containing approximately 80-90% T lymphocytes (determined by FACS analysis).
The cells were then washed in Hanks balanced salt solution (HBSS), resuspended in 5 ml of HBSS, and radiolabeled with ^51Cr for 30 minutes at 37° C. (as described above). The labeled cells were washed in PBS, centrifuged (200×g), and a portion were resuspended at a concentration of 3×10^7 cells/ml in either PBS (negative control) or PBS containing phenyl mannoside 6-phosphate (25 mg/ml in PBS; positive control) or PBS containing the test compound (25 mg/ml), and stored on ice. Cell viability was confirmed throughout the procedures by trypan blue exclusion. Balb/c mice were injected intravenously (iv) into the lateral tail vein with 0.2 ml containing 6×10^6 labeled lymphocytes and 0.2 ml of either PBS (negative control), 5 mg positive control or 5 mg test compound. All groups of mice were weight matched (±0.5 g).
Spleens from recipient mice were removed 1.5 hours after injection, and the cell-associated radioactivity was determined using a gamma counter (as above). Results of inhibition of lymphocyte migration into the spleen were expressed as a percentage reduction in the CPM of the spleens from treated animals compared with negative controls.
The phosphono-mannoside compounds of the present invention and their relative inhibition of lymphocyte migration in vivo (compared to negative controls) are presented in Table 2.

In the case of `Cc1ccc(O[C@H]2O[C@H](CCP(=O)(O)O)[C@@H](O)[C@H](O)[C@@H]2O)c(C)c1`, the “% Inhibition of lymphocyte migration into spleens” value is reported as 82.4%.
